For 18 molecules, EC50 and IC50 results are on record in patent US12098148B2, “Therapeutic compounds” (C4X Discovery Limited, priority 2018, dated 2024).

The test system of assay [1] is NQO1 mRNA in BEAS-2B cells. The assay is described as follows: Beas2B NQO1 mRNA cell based assay. More on the design: species or system human. To be noted: 24 h compound treatment, increase in NQO1 mRNA vs vehicle (0.1% DMSO), read-out: EC50. In a few lines: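 BEAS-2B human bronchial epithelial cells exposed to compound for 24 h at 37 °C, 5% CO2. NQO1 mRNA measured by one-step TaqMan RT-qPCR on unpurified lysates, normalized to β-actin; relative expression by ΔΔCT method.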

Assay [2] has as its target T1, human KEAP1 (N-term, residues 321-609) (Homo sapiens, UniProt Q14145).
Description: (§1) Biological Assays KEAP1 Kelch Fluorescence Polarization (FP) Assay Method
(§2) Inhibition of the Kelch domain-NRF2 interaction was determined using a fluorescence polarization-based competition assay in a black 384-well microplate. Compounds were tested at a starting concentration of 10 μM serially diluted 1:3 to generate a 12-point dose response curve on the Biomek FX robot.
(§3) After 1 h at room temperature, fluorescence polarization (excitation 470 nm/emission 530 nm) was measured using an Envision plate reader. IC50 values were determined by fitting the data to a four parameter logistic fit using XLfit or XE Runner within ActivityBase.
Assay [3] concerns the target T1, human KEAP1 (N-term, residues 321-609). Briefly: biochemical.
Description: as §1, §2, §3

Read-outs that look alike come from different tables or passages of the source.
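Wherever IC50 is given: fluorescence polarization competition assay of Kelch domain binding to NRF2, 12-point 1:3 dilution series from 10 µM, read after 1 h at room temperature, floor 10 nM.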

T1 sequence (Q14145 321-609): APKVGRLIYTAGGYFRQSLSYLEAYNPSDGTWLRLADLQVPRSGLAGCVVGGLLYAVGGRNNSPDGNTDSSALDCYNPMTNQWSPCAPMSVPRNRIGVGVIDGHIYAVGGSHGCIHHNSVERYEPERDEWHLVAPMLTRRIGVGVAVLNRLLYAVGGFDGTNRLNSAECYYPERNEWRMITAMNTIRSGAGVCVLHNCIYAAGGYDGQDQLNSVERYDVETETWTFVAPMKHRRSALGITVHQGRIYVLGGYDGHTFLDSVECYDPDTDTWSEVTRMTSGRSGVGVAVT

For orientation: EC50 means the concentration giving half of the maximal effect. For orientation: IC50 means the midpoint of a concentration-inhibition curve. Read a high IC50 as a need for much substance. As for “(1S,2R)-2-((S)-8- ((2,5-bis (difluoromethyl)-2H- 1,2,3-triazol-4-yl) methoxy)-5-chloro-1 ((2-oxopyrrolidin-1- yl)methyl)-1,2,3,4- tetrahydroisoquinoline- 2-carbonyl)-1- methylcyclohexane-1- carboxylic acid [Example 139]”, the half-maximal effective concentration (EC50) in assay [1] was 140 nM. This molecule returned a 50% inhibitory concentration (IC50) in assay [2] of 5.7 nM.

“(1S,2R)-2-((S)- 8-((1,5-bis (difluoromethyl)- 1H-1,2,3-triazol-4-yl) methoxy)-5-chloro-1- ((2-oxopyrrolidin-1- yl)methyl)-1,2,3,4- tetrahydroisoquinoline- 2-carbonyl)-1- methylcyclohexane- 1-carboxylic acid [Example 193]”: in assay [1], the EC50 came out at 1.8 nM. In assay [2], this molecule came in with a 50% inhibitory concentration (IC50) of 7.7 nM.

For `Cn1c(COc2ccc(Cl)c3c2[C@@H](CN2CC4(CC4)CC2=O)N(C(=O)[C@@H]2CCCC[C@]2(C)C(=O)O)CC3)cccc1=O` [Example 214, (1S,2R)-2-((S)-5-chloro-8-((1-methyl-6-oxo-1,6-dihydropyridin-2-yl)methoxy)-1-((6-oxo-5-azaspiro [2.4]heptan-5-yl)methyl)-1,2,3,4-tetrahydroisoquinoline-2-carbonyl)-1-methylcyclohexane-1-carboxylic acid], the midpoint of inhibition in assay [3], the IC50, lay at 5.2 nM. In addition, the concentration for a half-maximal effect (EC50) in assay [1] (Homo sapiens, BEAS-2B, 24 h) worked out at 41 nM.

As to `C[C@@H]1CC(=O)N(C[C@@H]2c3c(OCc4nnn(C)c4C(F)F)ccc(Cl)c3CCN2C(=O)[C@H]2CCCC[C@]2(C)C(=O)O)C1` [Example 149, (1S,2S)-2-((S)-5-chloro-8-((5-(difluoromethyl)-1-methyl-1H-1,2,3-triazol-4-yl)methoxy)-1-(((R)-4-methyl-2-oxopyrrolidin-1-yl)methyl)-1,2,3,4-tetrahydroisoquinoline-2-carbonyl)-1-methylcyclohexane-1-carboxylic acid], the IC50 in assay [3] is 28 nM. The concentration giving a half-maximal response (EC50) in assay [1] (Homo sapiens, BEAS-2B, 24 h) was found to be 73 nM.

`Cn1nnc(COc2ccc(Cl)c3c2[C@@H](CN2CC4(CC4)CC2=O)N(C(=O)[C@@H]2CCCC[C@]2(C)C(=O)O)CC3)c1C1CC1` [Example 159, (1S,2R)-2-((S)-5-chloro-8-((5-cyclopropyl-1-methyl-1H-1,2,3-triazol-4-yl)methoxy)-1-((6-oxo-5-azaspiro[2.4]heptan-5-yl)methyl)-1,2,3,4-tetrahydroisoquinoline-2-carbonyl)-1-methylcyclohexane-1-carboxylic acid] gave an IC50 in assay [3] of 6.7 nM. For the same molecule, the concentration for a half-maximal effect (EC50) in assay [1] (Homo sapiens, BEAS-2B, 24 h) is 0.22 nM.

As to `O=C(O)[C@H]1CCCC[C@H]1C(=O)N1CCc2c(Br)ccc(OCc3cccnn3)c2[C@H]1CN1Cc2ccccc2C1=O` [Example 30], the IC50 in assay [3] amounted to 9.2 nM. The EC50 in assay [1] (Homo sapiens, BEAS-2B, 24 h) worked out at 17 nM.

As for `O=C(NCCOc1cccc2c1[C@@H](CN1C(=O)c3ccccc3C1=O)N(C(=O)[C@@H]1CCCC[C@@H]1C(=O)O)CC2)c1nc2ccccc2o1` [Example 2, (1S,2R)-2-((S)-8-(2-(Benzo[d]oxazole-2-carboxamido)ethoxy)-1-((1,3-dioxoisoindolin-2-yl)methyl)-1,2,3,4-tetrahydroisoquinoline-2-carbonyl)cyclohexane-1-carboxylic acid], in assay [3], the IC50 turned out to be 12 nM. Moreover, the EC50 in assay [1] (Homo sapiens, BEAS-2B, 24 h) was 150 nM.

In assay [3], `Cn1nnc(COc2ccc(Br)c3c2[C@@H](CN2CCCC2=O)N(C(=O)[C@@H]2CCCC[C@]2(C)C(=O)O)CC3)c1C(F)(F)F` [Example 191, (1S,2R)-2-((S)-5-bromo-8-((1-methyl-5-(trifluoromethyl)-1H-1,2,3-triazol-4-yl)methoxy)-1-((2-oxopyrrolidin-1-yl)methyl)-1,2,3,4-tetrahydroisoquinoline-2-carbonyl)-1-methylcyclohexane-1-carboxylic acid] displayed an IC50 of 5.2 nM. Moreover, in assay [1] (Homo sapiens, BEAS-2B, 24 h), the EC50 turned out to be 2.1 nM.

As for `Cn1nnc(COc2c(F)cc(Cl)c3c2[C@@H](CN2CC4(CC4)CC2=O)N(C(=O)[C@@H]2CCCC[C@]2(C)C(=O)O)CC3)c1C(F)F` [Example 203, (1S,2R)-2-((S)-5-chloro-8-((5-(difluoromethyl)-1-methyl-1H-1,2,3-triazol-4-yl)methoxy)-7-fluoro-1-((6-oxo-5-azaspiro[2.4]heptan-5-yl)methyl)-1,2,3,4-tetrahydroisoquinoline-2-carbonyl)-1-methylcyclohexane-1-carboxylic acid], half-maximal inhibition in assay [3] (IC50) required 6.2 nM. For the same molecule, the EC50 in assay [1] (Homo sapiens, BEAS-2B, 24 h) is 0.4 nM.

As for `C[C@@H]1CCC(=O)N1C[C@@H]1c2c(OCc3nnn(C)c3C(F)F)ccc(Cl)c2CCN1C(=O)[C@@H]1CCCC[C@]1(C)C(=O)O` [Example 194, (1S,2R)-2-((S)-5-chloro-8-((5-(difluoromethyl)-1-methyl-1H-1,2,3-triazol-4-yl)methoxy)-1-(((R)-2-methyl-5-oxopyrrolidin-1-yl)methyl)-1,2,3,4-tetrahydroisoquinoline-2-carbonyl)-1-methylcyclohexane-1-carboxylic acid], the IC50 in assay [3] amounted to 7.9 nM. Besides, the EC50 in assay [1] (Homo sapiens, BEAS-2B, 24 h) was 12 nM.

With `O=C(O)[C@H]1CCCC[C@H]1C(=O)N1CCc2c(Cl)ccc(OCc3cccnc3)c2[C@H]1CN1CCCC1=O` [Example 78, (1S,2R)-2-((S)-5-Chloro-1-((2-oxopyrrolidin-1-yl)methyl)-8-(pyridin-3-ylmethoxy)-1,2,3,4-tetrahydroisoquinoline-2-carbonyl) cyclohexane-1-carboxylic acid], the IC50 in assay [3] was determined as 7.8 nM. Moreover, in assay [1] (Homo sapiens, BEAS-2B, 24 h), the concentration giving a half-maximal response (EC50) was determined as 57 nM.

In assay [3], `Cn1nnc(COc2ccc(Cl)c3c2[C@@H](CN2CCCC2=O)N(C(=O)[C@@H]2CCCC[C@@H]2C(=O)O)CC3)c1C(F)F` [Example 82, (1S,2R)-2-((S)-5-Chloro-8-((5-(difluoromethyl)-1-methyl-1H-1,2,3-triazol-4-yl)methoxy)-1-((2-oxopyrrolidin-1-yl)methyl)-1,2,3,4-tetrahydroisoquinoline-2-carbonyl) cyclohexane-1-carboxylic acid] had a half-maximal inhibitory concentration (IC50) of 7.7 nM. In assay [1] (Homo sapiens, BEAS-2B, 24 h), the 50% effective concentration (EC50) worked out at 1.3 nM.

In turn, `Cc1nnc(COc2ccc(Cl)c3c2[C@@H](CN2CC4(CC4)CC2=O)N(C(=O)[C@@H]2CCCC[C@]2(C)C(=O)O)CC3)n1C1CC1` [Example 177, (1S,2R)-2-((S)-5-chloro-8-((4-cyclopropyl-5-methyl-4H-1,2,4-triazol-3-yl)methoxy)-1-((6-oxo-5-azaspiro[2.4]heptan-5-yl)methyl)-1,2,3,4-tetrahydroisoquinoline-2-carbonyl)-1-methylcyclohexane-1-carboxylic acid] displayed an IC50 in assay [3] of 5.3 nM. Besides, the concentration giving a half-maximal response (EC50) in assay [1] (Homo sapiens, BEAS-2B, 24 h) was found to be 2.2 nM.

As to `Cn1nnc(COc2ccc(Br)c3c2[C@@H](CN2CC4(CC4)CC2=O)N(C(=O)[C@@H]2CCCC[C@]2(C)C(=O)O)CC3)c1C(F)F` [Example 198, (1S,2R)-2-((S)-5-bromo-8-((5-(difluoromethyl)-1-methyl-1H-1,2,3-triazol-4-yl)methoxy)-1-((6-oxo-5-azaspiro [2.4]heptan-5-yl)methyl)-1,2,3,4-tetrahydroisoquinoline-2-carbonyl)-1-methylcyclohexane-1-carboxylic acid], the concentration for half-maximal inhibition (IC50) in assay [3] is 5.2 nM. Besides, the EC50 in assay [1] (Homo sapiens, BEAS-2B, 24 h) came out at 0.24 nM.

In assay [3], `O=C(O)[C@H]1CCCC[C@H]1C(=O)N1CCc2c(Cl)ccc(OCc3nccn3CC(F)F)c2[C@H]1CN1Cc2ccccc2C1=O` [Example 52, (1S,2R)-2-((S)-5-chloro-8-((1-(2,2-difluoroethyl)-1H-imidazol-2-yl)methoxy)-1-((1-oxoisoindolin-2-yl)methyl)-1,2,3,4-tetrahydroisoquinoline-2-carbonyl)cyclohexane-1-carboxylic acid] showed an IC50 of 13 nM. Further, the EC50 in assay [1] (Homo sapiens, BEAS-2B, 24 h) is 140 nM.

In assay [3], `O=C(O)[C@H]1CCCC[C@H]1C(=O)N1CCc2c(Br)ccc(O[C@H]3CCN(C(=O)c4cncs4)C3)c2[C@H]1CN1C(=O)c2ccccc2C1=O` [Example 5, (1S,2R)-2-((S)-5-bromo-1-((1,3-dioxoisoindolin-2-yl)methyl)-8-(((S)-1-(thiazole-5-carbonyl)pyrrolidin-3-yl)oxy)-1,2,3,4-tetrahydroisoquinoline-2-carbonyl)cyclohexane-1-carboxylic acid] registered an IC50 of 6.1 nM. In addition, the 50% effective concentration (EC50) in assay [1] (Homo sapiens, BEAS-2B, 24 h) was 2.5 nM.

In the case of `O=C(O)[C@H]1CCCC[C@H]1C(=O)N1CCc2c(Cl)ccc(OCc3noc4ncccc34)c2[C@H]1CN1CCCC1=O` [Example 93, (1S,2R)-2-((S)-5-Chloro-8-(isoxazolo[5,4-b]pyridin-3-ylmethoxy)-1-((2-oxopyrrolidin-1-yl)methyl)-1,2,3,4-tetrahydroisoquinoline-2-carbonyl) cyclohexane-1-carboxylic acid], the concentration for half-maximal inhibition (IC50) in assay [3] was 7.2 nM. Further, in assay [1] (Homo sapiens, BEAS-2B, 24 h), the EC50 was found to be 15 nM.

Molecule `CC(Oc1ccc(Br)c2c1[C@@H](CN1Cc3ccccc3C1=O)N(C(=O)[C@@H]1CCCC[C@@H]1C(=O)O)CC2)c1cn(C(C)C)nn1` (single isomer, unassigned) [Example 46] had an IC50 in assay [3] of 37 nM. The EC50 in assay [1] (Homo sapiens, BEAS-2B, 24 h) came to 60 nM.
